In US20180125835A1, “Dosage and Use of an A2A Antagonist” (H. Lundbeck A/S, priority 2014, published 2018):

Tests used:
[1] = molecular target: A2A receptor (Rattus norvegicus, UniProt P30543); assay: Striatal A2A occupancy in rats by ex vivo autoradiography; design: incubation of the tracer with brain slices obtained from rats dosed with compound 504; from tissue; host or cells: striatum in coronal brain sections of male CD rats (Charles River Japan)
Procedure: After that the artery and vein blood was collected into tubes containing heparin. Immediately after that the brain was removed and ebbed in OCT compound and frozen in 2-methyl butane cooled with dry ice. The frozen brains were preserved at −80 C until use.
Coronal sections (20 μm) at about bregma 1.2 mm were prepared using a cyromicrotome (Coldtome, set temperature—20 C), Sakura) and placed on a slide glass (Super Frost, Matsunami Glass; 2 or 3 sections per glass). The brain sections collected on the slide glass were preserved at −80 C. Seventy μL of the reaction solution containing the tracer at 0.1 or 0.3 nmol/L was applied on the brain section and incubated at room temperature for the preset time. The reaction solution containing the tracer was handled using siliconized tools. After the incubation with the tracer, the brain section was washed for 1 minute with ice-cold wash solution three times and rinsed with ice-cold water twice. Non-specific binding of the tracer was evaluated by performing the same reaction with the brain section prepared from drug-untreated rats in the presence of 0.1 mmol/1 NECA. The brain section was dried at room temperature, exposed to the imaging plate (BAS-TR2040, Fuji Film) in a cassette, and left in a shield box for about 24 hours. The radioactivity was recorded under the following conditions: Resolution: 50 μm; Gradation: 256; Sensitivity: 10000; Latitude:5.
These plasma samples were used as calibration curve samples.
To pre-treat plasma samples, the internal standard (I.S.) was dissolved in acetonitrile to prepare an I.S. solution at 0.03 μg/mL. Plasma sample was diluted with control plasma whenever necessary. To 0.1 mL of plasma sample, 10 μL of the I.S. solution and 1 mL of 10 mmol/L ammonium acetate were added and stirred to prepare the sample for pretreatment. The sample was pretreated using Oasis HLB Extraction Plate (30 mg, Waters). Each well was serially conditioned with 1 mL of methanol and water. One ml of the sample for pretreatment was loaded on a well. After each well was washed with 1 mL of 5% vol % methanol, the analyte was eluted with 1 mL acethonitrile. The eluate was evaporated under nitrogen gas stream and the residue was redssolved in 0.1 mL of the reconstituted solution. The sample was centrifuged at 4 C, about 1800×G for 5 minutes using […] (0.45 μm hydrophilic PVDF, Whatman). An aliquote of the filtrate was used for analysis.
Calculation of the A2A receptor occupancy in striatum was done using the below formula
Φ(%)=(1−(PSLKW−BG/A)/(PSLctrl−BG/A))*100
Where PSLKW- and PSLctrl are PSL values in the ROI of compound 504-[…] animal, respectively. PLS is Photo stimulated luminescence for detection of tracer and ROI is region of interest for tracer measurement in striatum. […]

[2] = system: Long Evans rats; assay: Locomotor activity in habituated rats; format: in vivo, rat
Excerpt: Sixteen (16) male Long Evans rats were habituated to Med Associates test activity chambers (17″ W×17″ L×12″ H) over three, 90-minute sessions. […] Total distance travelled and rearing counts for the total session were the primary measure.

[3] = molecular target: T1, A1 receptor (Mus musculus, UniProt Q60612); assay: Adenosine receptor binding affinity, mouse A1
T1 sequence (Q60612 1-326): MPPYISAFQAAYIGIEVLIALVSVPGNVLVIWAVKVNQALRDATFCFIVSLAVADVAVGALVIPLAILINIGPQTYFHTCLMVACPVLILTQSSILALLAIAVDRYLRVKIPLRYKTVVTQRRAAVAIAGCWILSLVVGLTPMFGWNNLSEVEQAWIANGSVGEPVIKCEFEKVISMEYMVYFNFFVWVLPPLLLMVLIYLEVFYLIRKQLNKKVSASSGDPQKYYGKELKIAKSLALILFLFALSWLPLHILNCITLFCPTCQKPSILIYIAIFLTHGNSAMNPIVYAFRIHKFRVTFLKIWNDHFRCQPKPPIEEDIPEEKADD

[4] = Plasma exposure in Long Evans rats; format: in vivo; conditions: rat
Procedure: A minimum of 400 μL of whole blood was collected via saphenous bleed at 10 min, 20 min, 60 min, and 120 min post drug administration, i.e. at time points that coincided with the activity study (and phase 2: 5-choice experiments). Blood was collected and transferred into K3 EDTA tubes. The tubes were allowed to sit at room temperature for approximately 2 minutes and placed on wet ice until centrifugation. Blood was spun in the centrifuge with speed of 3,500 rpm for 15 minutes at 4° C. Plasma was separated and placed into a labeled 0.75 ml Matrix tube and capped. Plasma tubes were placed into a Matrix rack and stored in a −80° C. freezer. At the final time point (120 minutes post drug administration) following blood collection by cardiac puncture, the brain tissue was extracted and hemisected along the midline. One hemisphere, without the cerebellum, was placed in the 15 ml pre-weighed brain tube while the other portion was disposed. The brain tubes were weighed, frozen on dry ice, and stored at −80 C. Brain tissue and plasma samples were shipped on dry ice to Sponsor. Blood and brain levels of compound 504 were to be conducted by the Sponsor.

[5] = Safety and tolerability study, adverse events (Parts A, B, C)
Procedure: The study was conducted in three parts: Parts A, B, and C.
Parts A and B were single-dose escalations to determine the safety and tolerability in young healthy men, and in elderly men and women, respectively. Three doses (Cohorts A1 to A3) were tested in healthy young men: 1 mg (N=6), 5 mg (N=6), and 10 mg (N=5); placebo (N=8, total of the three cohorts). […] Two doses (Cohorts B1 and B2) were tested in healthy elderly men and women: 5 mg (N=9 men/4 women), 10 mg (N=4 men/4 women); placebo (N=6 men/4 women, total of the three cohorts). […] A washout period of at least 7 days separated each dose administration.

[6] = Part A, healthy young men, 1, 5 and 10 mg dose groups
[7] = Part B, healthy elderly, 5 and 10 mg dose groups
[8] = Part C, 5 mg on three occasions

Chain of A2A receptor (P30543 whole entry): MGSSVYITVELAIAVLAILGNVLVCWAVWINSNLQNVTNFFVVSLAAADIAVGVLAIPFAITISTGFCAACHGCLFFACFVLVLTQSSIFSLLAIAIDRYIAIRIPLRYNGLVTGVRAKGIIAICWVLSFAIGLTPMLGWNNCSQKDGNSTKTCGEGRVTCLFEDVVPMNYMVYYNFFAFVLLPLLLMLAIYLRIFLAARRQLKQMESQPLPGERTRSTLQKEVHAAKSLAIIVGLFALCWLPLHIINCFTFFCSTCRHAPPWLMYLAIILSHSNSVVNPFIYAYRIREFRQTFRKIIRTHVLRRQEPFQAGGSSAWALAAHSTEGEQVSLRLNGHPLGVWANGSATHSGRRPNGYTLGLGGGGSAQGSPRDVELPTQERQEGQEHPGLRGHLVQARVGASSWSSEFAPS

Cc1ccc(C(=O)Nc2nc(-c3ccco3)c(C(=O)C3CCOCC3)s2)cn1 [Compound 504]
equilibration half-life ([1]; hysteresis evaluation, semi compartment PK model, rat): < 30 min
EC80 plasma concentration of rat striatal occupancy ([1]; predicted from rat occupancy Emax PK/PD model): 1.25 µg/mL
EC50 ([1]; rat, 0.3 mg/kg oral, Emax model, 95% CI 113 to 128 ng/mL, read-out: EC50 plasma concentration for striatal A2A receptor occupancy (converted)): 304 nM
receptor occupancy at 0.175 µg/mL ([1]; rat, read-out: A2A occupancy corresponding to marmoset EC80 of 175 ng/mL): > 50%
locomotor activity (distance travelled and rearing counts) ([2]; 0.01-1 mg/kg oral, 90 min test session): dose related increase
timecourse of locomotor activity changes ([2]; 90 min session, all doses): peaked during the first 10 min timebin
dose at which magnitude of locomotor effect plateaued ([2]; oral, 90 min session): 0.06 to 0.1 mg/kg
effect size on locomotor activity compared with amphetamine (1 mg/kg IP) ([2]; same study): significantly less
Ki [3]: 31.1 ± 1.09 nM
plasma concentrations ([4]; oral 0.01-0.1 mg/kg): 100 to 450 ng/mL
plasma levels ([4]; oral 0.03-0.1 mg/kg, 60 min and 90 min sampling): 150 to 400 ng/mL
insomnia ([5]; Part A, 1 mg group): not reported
subjects reporting insomnia ([5]; Part A, 5 mg group (N=6)): 4 subjects
subjects reporting insomnia ([5]; Part A, 10 mg group (N=5)): 5 subjects
number of AEs [5, 6]: 36
subjects with AEs [5, 6]: 13 of the 17
number of severe adverse events ([5]; Part B, 10 mg group): 5
subjects with severe adverse events ([5]; Part B, 10 mg group): Three
dose considered to approach the maximum tolerated dose ([5]; Part B, elderly subjects): ~10 mg
number of AEs [5, 7]: 53
subjects with AEs [5, 7]: 16 of the 21
events of mild insomnia ([5]; Part C): 12
events of moderate insomnia ([5]; Part C): 2
number of moderate AEs ([5]; Part C): 15
number of severe AEs ([5]; Part C): 3
number of AEs [5, 8]: 90
subjects with AEs [5, 8]: 11 of the 12
safety and tolerability ([5]; Part C, 5 mg single doses, fed and fasting states): safe and tolerated
maximal tolerated dosage ([5]; single dose, insomnia limiting): 10 mg
